Ends that are not written are not given here.
Tested on: male normotensive Sprague-Dawley rats
Assay: Effects upon electrolyte excretion (Na+, K+, Cl- in urine) after i.v. bolus in anesthetized rats
Type: in vivo, rat
Conditions: 3.5 mcg/kg i.v. bolus; for ELECTROLYTE EXCRETION Cl^- / ELECTROLYTE EXCRETION K^+ / ELECTROLYTE EXCRETION Na^+: pooled urine of 8 rats
Protocol: The diuretic activities of the synthetic natriuretic peptides (SNP) of this invention and their effects upon electrolyte excretion are determined in male normotensive Sprague-Dawley rats. The animals are anesthetized with sodium pentobarbital (55 mg/kg), the femoral vein is cannulated for injection of the test compound and for infusion of Ringer's solution, the bladder is cannulated for urine collection, and the trachea is cannulated to ensure a clean airway. The animals are infused with Ringer's solution at a rate of 1.2 ml/20 min. for 20 minutes, the infusion rate is then decreased to 1.2 ml/hour for a further 20 minutes, and urine collections are started at the end of that period. Three 10-minute collections are taken as control samples, and at the end of the third 10-minute period the SNP to be tested is injected as a bolus over 30 seconds into the femoral vein. Infusion of Ringer's solution at 1.2 ml/hour is continued for the duration of the experiment, and urine samples are collected every 10 minutes over 4 hours, their respective volumes are determined, and the concentrations of Na^+, Cl^-, and K^+ are measured using a NovaBiomedical electrolyte analyzer. The above determinations are done on samples pooled from all animals in a given experiment, and urine flow is calculated as ml/min./kg body weight while electrolyte concentrations are calculated as mmol/l/gm kidney tissue.
Details of the assay method are described above, and it remains only to be stated that 8 male normotensive Sprague-Dawley rats are used in each group. […] Urine flow then decreases sharply and is at control volumes at about 40 minutes where it remains until about 140 minutes.

Q: Which results are given for “BG-3009: known ANP composed of 28 amino acid residues, identical with the ANP described by Flynn et al. (SLRRSSCFGGRIDRIGAQSGLGCNSFRY; not fully specified; ends and bridges not checked; UniProt P01161 123-150, looked up)”?
A: effect on Na^+ excretion, early phase (in words): sharp increases in Na^+ excretion for the first 30-40 minutes; effect on K^+ and Cl^- excretion (in words) (early phase): short-lasting decreases in K^+ and Cl^- excretion returning to control values after about 60 minutes; effect on Na^+ and Cl^- excretion, late phase (in words) (from about 140-160 minutes to 240 minutes): slight increase in Na^+ and Cl^- excretion; ELECTROLYTE EXCRETION Cl^- (10 min after injection): 10.1 mmol/l./gm. kidney tissue; ELECTROLYTE EXCRETION K^+ (10 min after injection): 1.5 mmol/l./gm. kidney tissue; ELECTROLYTE EXCRETION Na^+ (10 min after injection): 10.0 mmol/l./gm. kidney tissue; ELECTROLYTE EXCRETION Cl^- (20 min after injection): 12.8 mmol/l./gm. kidney tissue; ELECTROLYTE EXCRETION K^+ (20 min after injection): 2.4 mmol/l./gm. kidney tissue; ELECTROLYTE EXCRETION Na^+ (20 min after injection): 13.2 mmol/l./gm. kidney tissue; ELECTROLYTE EXCRETION Cl^- (30 min after injection): 12.7 mmol/l./gm. kidney tissue; ELECTROLYTE EXCRETION K^+ (30 min after injection): 4.9 mmol/l./gm. kidney tissue; ELECTROLYTE EXCRETION Na^+ (30 min after injection): 12.4 mmol/l./gm. kidney tissue; ELECTROLYTE EXCRETION Cl^- (40 min after injection): 13.0 mmol/l./gm. kidney tissue; ELECTROLYTE EXCRETION K^+ (40 min after injection): 5.6 mmol/l./gm. kidney tissue; ELECTROLYTE EXCRETION Na^+ (40 min after injection): 11.1 mmol/l./gm. kidney tissue; ELECTROLYTE EXCRETION Cl^- (50 min after injection): 14.0 mmol/l./gm. kidney tissue; ELECTROLYTE EXCRETION K^+ (50 min after injection): 6.6 mmol/l./gm. kidney tissue; ELECTROLYTE EXCRETION Na^+ (50 min after injection): 8.8 mmol/l./gm. kidney tissue; ELECTROLYTE EXCRETION Cl^- (60 min after injection): 13.5 mmol/l./gm. kidney tissue; ELECTROLYTE EXCRETION K^+ (60 min after injection): 7.4 mmol/l./gm. kidney tissue; ELECTROLYTE EXCRETION Na^+ (60 min after injection): 7.8 mmol/l./gm. kidney tissue; ELECTROLYTE EXCRETION Cl^- (70 min after injection): 13.7 mmol/l./gm. kidney tissue; ELECTROLYTE EXCRETION K^+ (70 min after injection): 7.7 mmol/l./gm. kidney tissue; ELECTROLYTE EXCRETION Na^+ (70 min after injection): 7.1 mmol/l./gm. kidney tissue; ELECTROLYTE EXCRETION Cl^- (80 min after injection): 13.0 mmol/l./gm. kidney tissue; ELECTROLYTE EXCRETION K^+ (80 min after injection): 7.9 mmol/l./gm. kidney tissue; ELECTROLYTE EXCRETION Na^+ (80 min after injection): 6.5 mmol/l./gm. kidney tissue; ELECTROLYTE EXCRETION Cl^- (90 min after injection): 13.3 mmol/l./gm. kidney tissue; ELECTROLYTE EXCRETION K^+ (90 min after injection): 8.0 mmol/l./gm. kidney tissue; ELECTROLYTE EXCRETION Na^+ (90 min after injection): 6.4 mmol/l./gm. kidney tissue; ELECTROLYTE EXCRETION Cl^- (100 min after injection): 13.3 mmol/l./gm. kidney tissue; ELECTROLYTE EXCRETION K^+ (100 min after injection): 8.2 mmol/l./gm. kidney tissue; ELECTROLYTE EXCRETION Na^+ (100 min after injection): 6.3 mmol/l./gm. kidney tissue; ELECTROLYTE EXCRETION Cl^- (110 min after injection): 13.1 mmol/l./gm. kidney tissue; ELECTROLYTE EXCRETION K^+ (110 min after injection): 8.2 mmol/l./gm. kidney tissue; ELECTROLYTE EXCRETION Na^+ (110 min after injection): 6.5 mmol/l./gm. kidney tissue; ELECTROLYTE EXCRETION Cl^- (120 min after injection): 13.7 mmol/l./gm. kidney tissue; ELECTROLYTE EXCRETION K^+ (120 min after injection): 8.5 mmol/l./gm. kidney tissue; ELECTROLYTE EXCRETION Na^+ (120 min after injection): 6.7 mmol/l./gm. kidney tissue; ELECTROLYTE EXCRETION Cl^- (130 min after injection): 13.6 mmol/l./gm. kidney tissue; ELECTROLYTE EXCRETION K^+ (130 min after injection): 8.6 mmol/l./gm. kidney tissue; ELECTROLYTE EXCRETION Na^+ (130 min after injection): 6.6 mmol/l./gm. kidney tissue; ELECTROLYTE EXCRETION Cl^- (140 min after injection): 14.8 mmol/l./gm. kidney tissue; ELECTROLYTE EXCRETION K^+ (140 min after injection): 9.0 mmol/l./gm. kidney tissue; ELECTROLYTE EXCRETION Na^+ (140 min after injection): 7.0 mmol/l./gm. kidney tissue; ELECTROLYTE EXCRETION Cl^- (150 min after injection): 15.2 mmol/l./gm. kidney tissue; ELECTROLYTE EXCRETION K^+ (150 min after injection): 9.4 mmol/l./gm. kidney tissue; ELECTROLYTE EXCRETION Na^+ (150 min after injection): 7.3 mmol/l./gm. kidney tissue; ELECTROLYTE EXCRETION Cl^- (160 min after injection): 14.2 mmol/l./gm. kidney tissue; ELECTROLYTE EXCRETION K^+ (160 min after injection): 9.4 mmol/l./gm. kidney tissue; ELECTROLYTE EXCRETION Na^+ (160 min after injection): 7.4 mmol/l./gm. kidney tissue; ELECTROLYTE EXCRETION Cl^- (170 min after injection): 14.4 mmol/l./gm. kidney tissue; ELECTROLYTE EXCRETION K^+ (170 min after injection): 9.2 mmol/l./gm. kidney tissue; ELECTROLYTE EXCRETION Na^+ (170 min after injection): 7.7 mmol/l./gm. kidney tissue; ELECTROLYTE EXCRETION Cl^- (180 min after injection): 14.8 mmol/l./gm. kidney tissue; ELECTROLYTE EXCRETION K^+ (180 min after injection): 9.1 mmol/l./gm. kidney tissue; ELECTROLYTE EXCRETION Na^+ (180 min after injection): 8.3 mmol/l./gm. kidney tissue; ELECTROLYTE EXCRETION Cl^- (190 min after injection): 14.4 mmol/l./gm. kidney tissue; ELECTROLYTE EXCRETION K^+ (190 min after injection): 8.7 mmol/l./gm. kidney tissue; ELECTROLYTE EXCRETION Na^+ (190 min after injection): 8.7 mmol/l./gm. kidney tissue; ELECTROLYTE EXCRETION Cl^- (200 min after injection): 14.7 mmol/l./gm. kidney tissue; ELECTROLYTE EXCRETION K^+ (200 min after injection): 8.5 mmol/l./gm. kidney tissue; ELECTROLYTE EXCRETION Na^+ (200 min after injection): 9.2 mmol/l./gm. kidney tissue; ELECTROLYTE EXCRETION Cl^- (210 min after injection): 15.0 mmol/l./gm. kidney tissue; ELECTROLYTE EXCRETION K^+ (210 min after injection): 8.4 mmol/l./gm. kidney tissue; ELECTROLYTE EXCRETION Na^+ (210 min after injection): 9.6 mmol/l./gm. kidney tissue; ELECTROLYTE EXCRETION Cl^- (220 min after injection): 15.3 mmol/l./gm. kidney tissue; ELECTROLYTE EXCRETION K^+ (220 min after injection): 8.3 mmol/l./gm. kidney tissue; ELECTROLYTE EXCRETION Na^+ (220 min after injection): 9.4 mmol/l./gm. kidney tissue; ELECTROLYTE EXCRETION Cl^- (230 min after injection): 14.8 mmol/l./gm. kidney tissue; ELECTROLYTE EXCRETION K^+ (230 min after injection): 8.3 mmol/l./gm. kidney tissue; ELECTROLYTE EXCRETION Na^+ (230 min after injection): 9.2 mmol/l./gm. kidney tissue; ELECTROLYTE EXCRETION Cl^- (240 min after injection): 15.7 mmol/l./gm. kidney tissue; ELECTROLYTE EXCRETION K^+ (240 min after injection): 8.5 mmol/l./gm. kidney tissue; ELECTROLYTE EXCRETION Na^+ (240 min after injection): 9.2 mmol/l./gm. kidney tissue

Reference: patent US4824937A, “Synthetic natriuretic peptides” (501 Advanced Peptide Development, Ltd., priority 1986, dated 1989)
